For this assay, the system named is CEM cells HIV-1 protection, formazan growth assay. The assay can be described thus: NCI AIDS Antiviral Assay. The following applies: for IC50: measured here: growth of uninfected CEM cells. The procedure, abridged: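 Human CEM cells, uninfected and HIV-1-infected, exposed to five drug concentrations; growth measured by soluble formazan assay and scored as percent protection from infection, with protecting compounds retested.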

Values joined by “and” are separate entries in the source; they are usually repeats but may differ in a detail not shown here. Identical values can stand only once. Active and inactive are the calls of the source.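 The calls were made as follows: active = compounds giving half or more protection of infected cells from virus-caused growth loss, again on retest; inactive = the rest.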

As for `C=C1CC23CC4C5C6(C)CC(O)CC57C(C2C(O)C1C(O)C37)N4C6` (centres undefined), the outcome was inactive.

Consider `CNc1ccc(Cl)cc1S(=O)(=O)c1ccccc1`, for which the EC50 is 6.03 µM and the IC50 was greater than 200 µM. The matching figures for `CC(C)=CCNc1ncnc2c1ncn2C1OC(CO)C(O)C1O` (centres undefined): greater than 200 µM and 15.5 µM. For the compound `Cc1ccc(-c2cc(-c3ccco3)c(C#N)c(=O)n2C2OC(CO)C(O)C(O)C2O)cc1` (centres undefined), the EC50 is 25.7 µM and the IC50 came to 81.3 µM. For the compound `COc1cc2c(cc1OC)OC(c1c(OC)ccc(OC)c1O)CC2` (centres undefined), the EC50 was greater than 100 µM and the IC50 is greater than 100 µM. Take `Cc1cc(N(C)c2ccccc2)nc(N(C)c2ccccc2)n1`: the EC50 was greater than 200 µM and the IC50 stood at 60.3 µM. As to `NC(=S)N/N=C1/CN(c2ccc(Cl)c(Cl)c2)CC(=O)C1c1nc2ccccc2s1` (centres undefined), the result was inactive. As for `CCCCCCCCCCCCC1=C(OC)C(=O)c2ccc(C)nc2C1=O`, the outcome was inactive. Consider `CC(=O)N1C(=O)C2(Nc3cccnc3N2)c2ccccc21` (centres undefined), for which the EC50 is greater than 100 µM and the IC50 was greater than 100 µM. For `O=c1[nH]ncc2c1ncn2C1CCC(CO)O1` (centres undefined), the EC50 was 195 µM and the IC50 was greater than 200 µM.

On to `N#Cc1c(NC(=S)Nc2ccc(Cl)cc2)sc2c1CCCC2`, for which the EC50 is greater than 200 µM and the IC50 was greater than 200 µM.

On to `CC12OC3(C(O)C1O)C(C(=O)O[C@H]3CO[Si](C)(C)C(C)(C)C)C2S(=O)(=O)c1ccccc1` (some centres undefined), for which the result was inactive. On to `CCOC(=O)c1ccc(CSc2ccccc2C(=O)O)c([N+](=O)[O-])c1`, for which the EC50 was greater than 14.5 µM and the IC50 is greater than 14.5 µM.

On to `COC(=O)C(Cc1ccccc1)NC(=O)C(CCCN=C(N)N)NC(=O)OCc1ccccc1` (centres undefined), for which the EC50 is greater than 200 µM and the IC50 was greater than 200 µM. In the case of `Oc1ccc2c(c1)OCC1(O)Cc3cc(O)c(O)cc3C21` (centres undefined), the result was inactive. As to `O=c1sc2ccccc2n1CCSSCCn1c(=O)sc2ccccc21`, the EC50 is greater than 200 µM and the IC50 came out at 9.12 µM. For `CCOC(=O)C1=C(O)c2c(sc(C)c2C)N(S(=O)(=O)c2ccc(C)cc2)CC1` the same measures were greater than 200 µM and 52.5 µM. The matching figures for `CCOC(=O)CCC(NC(=O)OCc1ccccc1)C(=O)NC(CCC(=O)OCC)C(=O)NC(CCC(=O)OCC)C(=O)NNC(=O)OC(C)(C)C` (centres undefined): greater than 200 µM and greater than 200 µM.

`N#C/C(=C/c1ccccc1)c1ccccc1`: the EC50 is greater than 200 µM and the IC50 turned out to be 39.8 µM. As for `CN(C)CCOc1ccc([N+](=O)[O-])c2cccnc12`, the EC50 is greater than 100 µM and the IC50 was 50.1 µM.

Turning to `CC1=N/C(=C\c2ccc(Cl)cc2)C(=O)O1`, the EC50 was greater than 32.4 µM and the IC50 is greater than 32.4 µM. As to `O=[N+]([O-])c1ccc(N/N=C/CC(O)(C(F)(F)F)C(F)(F)F)c([N+](=O)[O-])c1`, the EC50 was greater than 200 µM and the IC50 is 7.08 µM. The matching figures for `O=C1C=CC(=O)c2c1c1c(c3c2C2c4ccccc4C3c3ccccc32)C2c3ccccc3C1c1ccccc12`: greater than 10.2 µM and greater than 10.2 µM. The matching figures for `CCN(CC)c1cccc2c1C1(O)CCC3(CC21)OCCCCO3` (centres undefined): greater than 200 µM and 97.7 µM.

For `CCc1c(Cc2[nH]c(Cc3[nH]c(C=O)c(C)c3CC)c(CC)c2CC)[nH]c(C=O)c1C`, the EC50 was greater than 200 µM and the IC50 was greater than 200 µM.

On to `CC(=O)OCC1OC(n2c(=S)n(-c3ccccc3)c(=O)c3ccccc32)C(OC(C)=O)C(OC(C)=O)C1OC(C)=O` (centres undefined), for which the EC50 was greater than 32.4 µM and the IC50 is greater than 32.4 µM. Turning to `COc1ccc2c(c1O)C13CCN(C)C(C2)C1CCC1(C3)OCCO1` (centres undefined), the EC50 was greater than 380 µM and the IC50 came out at 204 µM. Turning to `COc1ccc(C2OC(=O)c3c2ccc2ccccc32)c(C)c1` (centres undefined), the EC50 was greater than 44.7 µM and the IC50 is 27.5 µM.

As to `COC(=O)[C@H](Cc1ccc(OC(C)(C)C)cc1)N[C@H](C)C(=O)N[C@@H](Cc1ccccc1)C(=O)OCc1ccccc1`, the EC50 is greater than 200 µM and the IC50 was found to be 27.5 µM. For `N=C(N)C1CN(CCc2c[nH]c3ccccc23)C(=O)NC1=O` (centres undefined) the same measures were greater than 200 µM and greater than 200 µM. For `COc1ccc(-c2nc(-c3cc4ccccc4oc3=O)cs2)cc1` the same measures were greater than 100 µM and greater than 100 µM. As for `O=C(O)c1ccc(S(=O)(=O)c2ccccc2[N+](=O)[O-])cc1`, the EC50 is greater than 200 µM and the IC50 is greater than 200 µM. Consider `COc1cc2c(c3oc4c(c(=O)c13)CCCC4)CCC(C)(C)O2`, for which the EC50 was greater than 56.2 µM and the IC50 is 23.4 µM. For `COC(=O)C1=C(C(=O)OC)N(c2ccncc2)C(c2ccco2)=CC1c1ccccc1[N+](=O)[O-]` (centres undefined), the EC50 is greater than 74.1 µM and the IC50 is 7.24 µM. For `CN(/N=N/N(C)c1ccccc1)c1ccccc1` the same measures were greater than 200 µM and greater than 200 µM. The matching figures for `COC[C@H]1c2cc(O)c(OCc3ccccc3)cc2O[C@@H]1c1ccc(OC)cc1`: greater than 200 µM and 19.5 µM. The matching figures for `Fc1ccc(NC(=S)Nc2ccccn2)cc1`: greater than 158 µM and 129 µM. With `CC(=O)N1[C@H](C(=O)O)CS[C@H]1c1ccncc1`, the outcome was inactive.

In the case of `N#CNC(=NCc1ccccc1)NCCc1c[nH]c2ccccc12`, the EC50 is 145 µM and the IC50 is 162 µM. For `O=c1c(Cl)c(Cl)cnn1-c1ccc([N+](=O)[O-])cc1[N+](=O)[O-]` the same measures were greater than 20.4 µM and greater than 20.4 µM. For the compound `Cc1nc([N+](=O)[O-])cn1CC(=N)N`, the EC50 was greater than 1120 µM and the IC50 is greater than 1120 µM. Consider `CCn1nc(C(=O)O)c(=O)c2cc3c(cc21)OCO3`, for which the EC50 was greater than 200 µM and the IC50 is greater than 200 µM. For `N#C/C=C\c1cccc(C#N)c1`, the EC50 was greater than 46.8 µM and the IC50 was greater than 46.8 µM. Consider `COc1cccc(-c2nc(-c3cnccn3)n(COCCO)n2)c1`, for which the EC50 is greater than 200 µM and the IC50 is greater than 200 µM. Consider `CCCCNc1nc(N)nc(Nc2ccc(Br)cc2)c1N=O`, for which the EC50 is greater than 55 µM and the IC50 is 23.4 µM. As for `Cc1[nH]nc2c1C(=O)C=C(N(CCO)c1ccccc1)C2=O`, the outcome was inactive.

For the compound `COc1ccc(CCc2ncc[nH]2)cc1`, the EC50 is greater than 708 µM and the IC50 is greater than 708 µM. On to `COC(=O)[C@H]1C2CC[C@@H]3C45C[C@@H](c6ccoc6)O[C@@H]4O[C@@H](O2)C31CCC5C` (some centres undefined), for which the EC50 is greater than 95.5 µM and the IC50 is greater than 95.5 µM. As for `CC1(C)OC(=O)C(=Cc2ccccc2F)C(=O)O1`, the EC50 was greater than 380 µM and the IC50 is 70.8 µM. For `CN(c1ccccc1)C1C(=O)N(c2ccccc2)C1/C=C/c1ccccc1` (centres undefined), the result was inactive.

As to `C=Cc1cc[n+](CCCCCCCCCCCC)cc1`, the EC50 was greater than 174 µM and the IC50 was 102 µM. For `Cc1[nH]c2ccccc2c1C1Cc2ccccc2N1C(=O)/C=C/C(=O)O` (centres undefined) the same measures were greater than 724 µM and 132 µM. Regarding `CC1(C)COC(c2ccccc2Br)=N1`, the EC50 is greater than 200 µM and the IC50 is greater than 200 µM. With `FC(F)(F)C1(C(F)(F)F)C2CCC3(CC(F)(F)C(F)(F)S3)C1C2` (centres undefined), the EC50 was greater than 200 µM and the IC50 was greater than 200 µM. As for `CCOc1ncn(-c2ccc(NC(=S)Nc3cccc(O)c3)cc2)n1`, the EC50 is greater than 200 µM and the IC50 is greater than 200 µM. On to `COC(=O)C1=C(CO)C2C=CC1C2` (centres undefined), for which the result was inactive. As to `Cc1ccc2c(c1)C(=O)C1(C2)Cc2ccc(C)cc2C1=O`, the EC50 was 191 µM and the IC50 was greater than 200 µM. For the compound `CCOP(=O)(OCC)O/N=C/c1cccc(C(F)(F)F)c1`, the EC50 is greater than 204 µM and the IC50 was greater than 204 µM. As to `O=[N+]([O-])c1cccc(-c2csc(N=Nc3c(O)[nH]c4ccccc34)n2)c1`, the EC50 was greater than 200 µM and the IC50 is greater than 200 µM. In the case of `O=C(O)/C=C/c1c2ccc(=O)c(O)c-2oc2c(O)c(O)ccc12`, the EC50 was 6.03 µM and 24 µM; the concentration for half-maximal inhibition (IC50) was 151 µM and 162 µM. In the case of `CCOC(=O)c1cn2c([nH]c3ccccc32)c(C#N)c1=O`, the EC50 was greater than 47.9 µM and the IC50 was greater than 47.9 µM. Regarding `CC(=O)Oc1ccc2c(c1)O/C(=C\c1ccc(O)cc1)C2=O`, the EC50 is greater than 200 µM and the IC50 turned out to be 138 µM.

For `CCCCCC1OC1C/C=C\CCCCCCCC(=O)OCC(O)COC(=O)CCCCCCC/C=C\CC1OC1CCCCC` (centres undefined), the EC50 was greater than 200 µM and the IC50 was greater than 200 µM. In the case of `Cc1cn(C2CC(O[Si](C)(C)C(C)(C)C)C(/C=[N+](/[O-])C(C)(C)C)O2)c(=O)[nH]c1=O` (centres undefined), the EC50 was greater than 120 µM and the IC50 turned out to be 33.9 µM. In the case of `CCCCCCCCCCCCC/C=C\[C@@H](OC(=O)c1ccccc1)C(CO)N=[N+]=[N-]` (some centres undefined), the outcome was inactive.

Take `COc1ccc(NC(=O)CSc2nnc(-c3ccc(NC(C)=O)cc3)o2)cc1`: the EC50 was greater than 33.9 µM and the IC50 was determined as 19.1 µM.

As to `c1nncn1C12C3C4C5C3C1C5C42` (centres undefined), the EC50 was greater than 200 µM and the IC50 was greater than 200 µM. Take `CCC1(OC(=O)CN)C(=O)OCc2c1cc1n(c2=O)Cc2cc3ccccc3nc2-1` (centres undefined): the EC50 was greater than 10 µM and the IC50 is 0.00692 µM. As for `O=c1[nH]oc2ccccc12`, the EC50 is greater than 200 µM and the IC50 was greater than 200 µM. Take `COc1ccc(N=Nc2ccc3oc(=O)c(C(=O)Nc4ccc(OC)cc4)cc3c2)cc1`: the EC50 was greater than 200 µM and the IC50 came to 20 µM. For `c1ncc(C23C4C5C6C4C2C6C53)[nH]1` (centres undefined) the same measures were greater than 200 µM and 155 µM. On to `CN(C)C(c1ccccc1)C1COC2Cc3ccccc3C1O2` (centres undefined), for which the EC50 is greater than 200 µM; the IC50 is > 200 µM and 151 µM.

The values are drawn from PubChem BioAssay AID179 (DTP/NCI, 2004).
